Measurements: article PMC6789442, “Unraveling Hepcidin Plasma Protein Binding: Evidence from Peritoneal Equilibration Testing” (Pharmaceuticals, 2019)
Like-named read-outs stand apart in the source and are kept apart here.

Columns and labels:
[1] = ESRD patients, serum at t = 0 h, equilibrium dialysis 5 h, 37 °C, 5 kDa membrane, HEPES buffer pH 7.40, LC-MS/MS, N = 9
Protocol: Serum was dialyzed in a multi-cell equilibrium dialyzer using Teflon dialyzing cells consisting of two identical parts between which a flat membrane is fitted (Dianorm-Geräte). The dialysis cells are incubated in a water bath with constant agitation by a rotating apparatus and temperature during dialysis was maintained at 37 ± 0.5 °C, by constant monitoring with an immersion thermostatic system (Tinytag TGP-4020 logger and PB5001-1M5 sonde; Gemini data loggers). The dialysis membranes were prepared from Dianorm (Diachema dialysis membranes 10.14) with a cut-off of 5 kDa. Equilibrium dialysis was performed for 5 h with 180 µL serum against 180 µL HEPES buffer; while rotating the dialysis apparatus at 20 rpm.

plasma proteins = experiment: Plasma protein binding percentage calculated from measured vs expected peritoneal clearance (MW-clearance curve); type: in vivo, human; conditions: (1 − measured PC / expected PC) × 100%; expected PC from Log10(PC) = 4.5744 – 0.05063 × cube root MW; ESRD patients in PET; mean (±sd)
Description: Logarithmic transformation was used for PC data before statistical analysis, as the data was not normally distributed. In addition, we used a cube root scaling for MW, since transport rates are related to size and thus radius (r), and considering volume as a three-dimensional characteristic of the radius (r^3). The curve describing the relation between MW and PC of all analytes was estimated with a linear mixed model using a random slope and random intercept. The expected PC of each analyte could be calculated using its MW and the equation of the curve. We calculated the binding percentage as:Binding percentage (%) = (1 − (Measured PC)/(Expected PC)) × 100%.(3)
In this equation, the measured PC divided by the expected PC represents the free hormone fraction. The strength of a linear association between the clearances of two analytes was measured using Spearman’s correlation coefficient.

[2] = Solute concentration in blood (plasma/serum) before dialysis
Protocol: (§1) All were centrifuged at 2000 g for 10 min.
(§2) Measurements of urea, creatinine, and IgG were performed on a Cobas C8000 random access analyzer (Roche Diagnostics, Basel, Switzerland).
(§3) This MS-based assay determines total hepcidin (i.e., the sum of bound and unbound fraction). Peptide spectra were generated on a Microflex LT […] laser desorption/ionisation TOF MS platform (Bruker Daltonics, Hamburg, Germany). Hepcidin concentrations were expressed as nmol/L. The lower limit of quantification of this method was 0.5 nM.
Cortisol and testosterone were analyzed by Liquid Chromatography-Mass Spectrometry (LC-MS/MS) after protein precipitation and solid-phase extraction. Internal standard [^2H4]-cortisol and [^13C3]-testosterone (Isoscience, Ambler, PA, USA) was added to 100 µL serum. Subsequently, 300 µL acetonitrile with 0.1% formic acid was added for protein precipitation and 300 µL H2O was added to 200 µL supernatant followed by solid phase extraction (Oasis HLB 1cc, Waters, Milford, MA, USA). The eluate (methanol:isopropanol 95:5) was dried under a stream of N2 gas, reconstituted in methanol:water (3:7) and injected (10 µL) into an Agilent Technologies 1290 Infinity Ultra High Performance Liquid Chromatography (UHPLC)-system (Agilent Technologies, Agilent, Santa Clara, CA, USA) equipped with a BEH C18 (1.7 μm 2.1 × 50 mm) analytical column (Waters Corp.) at 60 °C. Mobile phase A (methanol:water 20:80 + 2 mM NH4CH3COO + 0.1% formic acid) and B (methanol:water 98:2 + 2 mM NH4CH3COO + 0.1% formic acid) were run in a gradient (0.4 mL/min). Start gradient 70:30 A:B for 2.5 min; then to 40:60 A:B in 3.5 min; followed by a gradient in 0.5 min to 2:98 to remain such for 0.5 min and thereafter to 70:30 A:B in 0.5 min and remain such for 0.5 min. […] Total run time was 8 min. A 9-point calibration curve was used (cortisol and testosterone, Steraloids). An Agilent 6490 tandem mass spectrometer (Agilent Technologies, Agilent, Santa Clara, CA, USA) was operated in the electrospray positive ion mode, with a capillary voltage 3.5 kV, fragmentor voltage 380 V, sheath gas temperature 350 °C, and gas temperature 150 °C with N2 collision gas. Two transitions (qualitative and quantitative) were monitored. Transitions (Q1 > Q3) were m/z 363.4 > 97.1 (34 V) and m/z 363.4 > 121.1 (25 V) for cortisol; m/z 367.4 > 97.1 (34 V) and m/z 367.4 > 121.1 (25 V) for [2H4]-cortisol. m/z 289.2 > 109.1 […] and m/z 289.2 > 97.1 […] for testosterone; m/z 292.3 > 112.1 […] and m/z 292.3 > 100.1 […] for 13C3-testosterone. Dwell time was 100 ms and 50 ms for cortisol and testosterone, respectively.

[3] = Peritoneal clearance from peritoneal equilibration test (PET); conditions: ESRD patients in PET; for Peritoneal Clearance t = 0–1 h Mean (sd): [Dialysate] t = 1 h / [Blood] t = 0 h × dialysate volume / 60 min, total blood concentration, N 14, 13 testosterone, 10 cortisol, 13 hepcidin
Protocol: (§4) Dialysate sampling was performed at 1 h of dwell time (t = 1 h), since peritoneal transport of solutes with a low MW (<200 Da) will decrease over a longer period of time due to saturation of the dialysate [22]. For sampling, all dialysate fluid was collected in a plastic (PVC) bag and mixed ex vivo before a sample was taken, to assure dialysate samples were representative for the fluid in the peritoneal cavity. Thereafter, the remaining dialysate was returned into the peritoneal cavity. […] Blood samples were drawn prior to dialysis (t = 0 h) in both heparin plasma and serum tubes. All were centrifuged at 2000 g for 10 min. Blood and dialysate samples were aliquoted and immediately stored at −80 °C until measurement.
(§5) Measurement results for solutes below the lower limit of detection (LLOD) were excluded.

[4] = in vivo
Protocol: as §4, §5

[5] = Solute concentration in peritoneal dialysate at 1 h dwell
Protocol: as §1, §2, §3
Testosterone and cortisol in peritoneal dialysate were analyzed by LC-MS/MS after solid-phase extraction. Sample preparation consisted of internal standard addition [13C3]-testosterone (Isoscience, Ambler, PA, USA) and […] (Isoscience) to 1000 µL dialysate and solid phase extraction (SPE) using Oasis® MCX 1cc cartridges (Waters Corp, Milford, MA, USA).
Columns were pre-equilibrated with 1 mL MeOH:IPA (95:5) and subsequently washed with 1 mL H2O. After application of the sample, columns were washed with 1 mL H2O:NH4OH (95:5) and 1 mL MeOH:H2O (20/80) + 2% HCOOH. The 300 µL eluate (MeOH) was dried under a stream of N2 gas, reconstituted in MeOH:H2O (30:70). A nine-point calibration series was used (using testosterone and cortisol both from Steraloids). Calibrators, quality controls, and samples (reconstituted in 100 µL) were injected (10 µL) into an Agilent Technologies 1290 Infinity VL UHPLC-system (Agilent Technologies, Santa Clara, USA), equipped with a BEH C18 (1.7 μm 2.1 X 50 mm) analytical column (Waters Corp., Milford, MA, USA) at 60 °C. Mobile phase A (MeOH/H2O (20:80) + 2 mM NH4CH3COO + 0.1% HCOOH) and B (MeOH/H2O (98:2) + 2 mM NH4CH3COO + 0.1% HCOOH) were run in a gradient (0.4 mL/min). The gradient program was as follows: Start gradient A:B (70:30) for 2.5 min; followed by a gradient in 2 min to A:B (60:40) and subsequent 2.5 min A:B (35:65). For column washing, a gradient 0.5 min A:B (98:2) was established to remain such for 0.5 min. The column was re-equilibrated to A:B (70:30) in 0.5 min and remained such for 0.5 min. […] An Agilent 6490 tandem mass spectrometer (Agilent Technologies, Santa Clara, CA, USA) was operated in the electrospray positive ion mode. Operating conditions were as follows: Capillary voltage 3.5 kV, fragmentor voltage 380 V, sheath gas temperature 350 °C, and gas temperature 150 °C. The collision energy was optimized between 25 and 34 eV for all solutes and Nitrogen was used as collision gas. Two mass transitions were monitored for each analyte and the internal standards. The first transition was used for quantification, the second for confirmation. The transitions (Q1 > Q3) were m/z 289 > 97 and m/z 289 > 109 for testosterone; m/z 292 > 100 and m/z 292 > 112 for [13C3]-testosterone; m/z 363 > 121 and m/z 363 > 97 for cortisol; m/z 367 > 121 and m/z 367 > 97 for [3H4]-cortisol. Total run time was 9 min.
For both total and free cortisol PC calculations, we used total cortisol measurements in dialysate, since we assume that all cortisol present in dialysate after 1 h of dwell time is free considering the large MW of its main binding protein corticosteroid binding globulin (MW 52 kDa).

[6] = rapidly excreted by the kidneys; cited from earlier work
Description: Our finding that hepcidin is not predominantly bound is in line with other literature, in which a merely freely circulating hepcidin was observed using gel chromatography on human serum samples, followed by Liquid Chromatography-Mass Spectrometry (LC-MS/MS). In fact, other peptide hormones such as human growth hormone, insulin [28], and cardiac natriuretic hormones circulate freely, since peptide hormones are often water-soluble and can, therefore, easily be transported via the cardiovascular system without requiring carrier proteins. In addition, hepcidin is ...

[7] = peritoneal dialysate at 1 h dwell, 3.86% glucose solution, ESRD patients, total measurement, mean (sd), N 13 testosterone, 10 cortisol, 13 hepcidin

Compound	Binding percentage (protein-bound fraction) (plasma proteins)	[Plasma] t = 0 h Mean (sd), total concentration ([2]; in vivo)	Peritoneal Clearance t = 0–1 h Mean (sd) [4]	[Dialysate] t = 1 h Mean (sd) [5, 7]	[Dialysate] t = 1 h Mean (sd) ([5]; in vivo)	Peritoneal Clearance t = 0–1 h Mean (sd) [3]	further results
C[C@]12CCC(=O)C=C1CC[C@@H]1[C@@H]2[C@@H](O)C[C@@]2(C)[C@H]1CC[C@]2(O)C(=O)CO [Cortisol, cortisol]	91% (±3%)	229.1 (134.4) nmol/L	1439.0 (490.8) µL/min	8.4 (5.8) nmol/L			[Plasma] t = 0 h Mean (sd), free cortisol [1]: 12.7 (7.7) nmol/L; Peritoneal Clearance t = 0–1 h Mean (sd), free cortisol ([3]; calculated with free serum cortisol at t = 0 h and total cortisol in dialysate at 1 h, N = 9): 25,030.8 (8123.9) µL/min; [Dialysate] t = 1 h Mean (sd), row of free cortisol ([5]; total cortisol measured in dialysate at 1 h, assumed to be all free, used for free cortisol clearance, mean (sd), N = 9): 8.4 (5.8) nmol/L
CN1CC(=O)NC1=N [Creatinine, creatinine]			21,499.6 (5861.6) µL/min		296.9 (119.9) µmol/L		[Plasma] t = 0 h Mean (sd) ([2]; in vivo): 542.0 (172.6) µmol/L
C[C@]12CC[C@H]3[C@@H](CCC4=CC(=O)CC[C@@]43C)[C@@H]1CC[C@@H]2O [Testosterone, testosterone]	97% (±1.5%)			0.1 (0.1) nmol/L		507.7 (260.5) µL/min	[Plasma] t = 0 h Mean (sd), total concentration ([2]; ESRD patients undergoing PET, blood at t = 0 h, total = free and protein-bound, cortisol/testosterone LC-MS/MS, hepcidin WCX-TOF MS, mean (sd), N 13 testosterone, 10 cortisol, 13 hepcidin): 8.6 (7.3) nmol/L
NC(N)=O [Urea, urea]						26,959.1 (6211.8) µL/min	[Plasma] t = 0 h Mean (sd) ([2]; ESRD patients on peritoneal dialysis undergoing PET, blood drawn before dialysis (t = 0 h), endogenous solute, mean (sd), N = 14): 21.5 (6.6) mmol/L; [Dialysate] t = 1 h Mean (sd) ([5]; peritoneal dialysate at 1 h dwell, 3.86% glucose solution, ESRD patients, mean (sd), N = 14): 15.0 (6.1) mmol/L
hepcidin	40% (±23%)	10.6 (9.1) nmol/L			1.2 (1.1) nmol/L	4337.5 (1713.1) µL/min	half-life [6]: several hours
